Reference: patent US20110015162A1, “15,16-Methylene-17-hydroxy-19-nor-21-carboxylic acid-steroid Y-lactone derivative, use thereof and medicinal products containing the derivative” (Bayer Schering Pharma Aktiengesellschaft, priority 2007, published 2011)

Assays:
[1] = target: T1, progesterone receptor (Homo sapiens, UniProt P06401); assay: Progesterone receptor binding test; settings: for Progesterone receptor (PR) Competition factor: CF 1 = affinity of progesterone, CF >1 lower affinity, <1 higher affinity; for CF PR/CF MR: ratio of competition factors CF(PR) and CF(MR)
T1 construct: made in house; host or cells: Hi5 insect cells (cytosol)
T1 sequence (P06401 1-933): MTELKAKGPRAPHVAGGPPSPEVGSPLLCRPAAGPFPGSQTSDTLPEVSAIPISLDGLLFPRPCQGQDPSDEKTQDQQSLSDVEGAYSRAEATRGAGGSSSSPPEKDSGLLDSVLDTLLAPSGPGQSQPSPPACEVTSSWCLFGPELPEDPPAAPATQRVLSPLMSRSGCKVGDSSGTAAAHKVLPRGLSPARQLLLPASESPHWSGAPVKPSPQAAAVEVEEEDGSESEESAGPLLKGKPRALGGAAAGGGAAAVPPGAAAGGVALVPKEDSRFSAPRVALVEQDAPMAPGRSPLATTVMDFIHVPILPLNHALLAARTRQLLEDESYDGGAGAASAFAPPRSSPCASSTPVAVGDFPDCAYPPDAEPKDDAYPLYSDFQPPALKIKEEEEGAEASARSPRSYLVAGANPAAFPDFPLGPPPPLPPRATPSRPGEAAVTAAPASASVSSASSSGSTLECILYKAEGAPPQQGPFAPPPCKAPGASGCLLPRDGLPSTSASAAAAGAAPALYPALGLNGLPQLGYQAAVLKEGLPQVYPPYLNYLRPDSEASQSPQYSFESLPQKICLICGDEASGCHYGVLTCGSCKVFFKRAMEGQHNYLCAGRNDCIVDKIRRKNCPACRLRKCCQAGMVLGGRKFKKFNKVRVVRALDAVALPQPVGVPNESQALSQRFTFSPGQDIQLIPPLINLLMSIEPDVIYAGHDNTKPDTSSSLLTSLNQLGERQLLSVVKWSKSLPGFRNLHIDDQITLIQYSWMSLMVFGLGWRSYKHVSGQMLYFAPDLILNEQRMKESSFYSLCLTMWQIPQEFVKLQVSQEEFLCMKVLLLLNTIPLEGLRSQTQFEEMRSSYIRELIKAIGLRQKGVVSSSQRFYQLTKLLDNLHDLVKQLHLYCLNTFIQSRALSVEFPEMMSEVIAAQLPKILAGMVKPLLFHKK
Method: 1. Progesterone Receptor Binding Test:
Using cytosol from progesterone receptor-expressing insect cells (Hi5), competitive binding to the progesterone receptor was determined from the ability to displace ^3H-progesterone as reference substance from the receptor.

[2] = target: T2, mineralocorticoid receptor (Homo sapiens, UniProt P08235); assay: Antimineralocorticoid action by transactivation test (MDCK reporter cells); type: cell-based; set-up: expressed in transfected cells; host or cells: MDCK cells; settings: for Emax: MDCK, read-out: Mineralocorticoid receptor Antagonism efficacy;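 on Emax: percent inhibition of the aldosterone-stimulated reporter signal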
T2 sequence (P08235 1-984): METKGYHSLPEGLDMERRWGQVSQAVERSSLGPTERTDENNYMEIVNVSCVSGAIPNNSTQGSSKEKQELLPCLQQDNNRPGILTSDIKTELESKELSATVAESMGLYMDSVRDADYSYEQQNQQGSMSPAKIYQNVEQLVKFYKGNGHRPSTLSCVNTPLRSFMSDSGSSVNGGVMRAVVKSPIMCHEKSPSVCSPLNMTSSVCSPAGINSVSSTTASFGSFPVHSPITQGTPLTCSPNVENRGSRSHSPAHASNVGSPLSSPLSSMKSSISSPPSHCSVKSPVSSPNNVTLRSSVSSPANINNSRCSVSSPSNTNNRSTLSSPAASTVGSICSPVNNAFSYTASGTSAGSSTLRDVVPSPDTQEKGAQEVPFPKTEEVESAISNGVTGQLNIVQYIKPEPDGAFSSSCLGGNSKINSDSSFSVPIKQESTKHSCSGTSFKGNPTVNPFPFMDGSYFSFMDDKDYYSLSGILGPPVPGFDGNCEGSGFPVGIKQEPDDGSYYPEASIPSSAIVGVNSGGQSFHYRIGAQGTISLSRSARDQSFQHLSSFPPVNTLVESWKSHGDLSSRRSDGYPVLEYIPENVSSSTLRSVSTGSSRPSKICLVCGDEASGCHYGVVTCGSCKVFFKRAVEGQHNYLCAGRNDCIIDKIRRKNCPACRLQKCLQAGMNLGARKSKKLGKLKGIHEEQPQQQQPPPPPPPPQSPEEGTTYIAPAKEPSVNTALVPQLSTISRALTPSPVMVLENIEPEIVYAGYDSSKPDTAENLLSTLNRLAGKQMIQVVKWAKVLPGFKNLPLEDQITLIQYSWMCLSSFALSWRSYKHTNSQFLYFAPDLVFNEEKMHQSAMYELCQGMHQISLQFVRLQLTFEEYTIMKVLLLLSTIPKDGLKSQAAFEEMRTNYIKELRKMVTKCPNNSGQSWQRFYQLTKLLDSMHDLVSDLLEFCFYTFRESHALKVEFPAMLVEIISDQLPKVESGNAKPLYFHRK
In short: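 MDCK reporter cells expressing human mineralocorticoid receptor, transiently carrying luciferase under a steroid hormone-responsive promoter.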

Compound	IC50 [1]	Progesterone receptor (PR) Competition factor [1]	CF PR/CF MR [1]	IC50 [2]	Emax [2]
C=C[C@@H]1CC2=CC(=O)CC[C@@H]2[C@H]2CC[C@@]3(C)[C@@H]([C@@H]4C[C@@H]4[C@@]34C=CC(=O)O4)[C@@H]21 [Example 25A, 17β-Hydroxy-15β,16β-methylene-7α-vinyl-19-nor-17α-pregna-4,20(Z)-dien-3-one-21-carboxylic acid γ-lactone]	150 nM	6.14	0.65	910 nM	84.1%
CC[C@]12CC[C@H]3[C@@H](CCC4=CC(=O)CC[C@@H]43)[C@@H]1[C@@H]1C[C@@H]1[C@@]21C=CC(=O)O1 [Example 9, 17β-Hydroxy-18-methyl-15β,16β-methylene-19-nor-17α-pregna-4,20(Z) dien-3-one-21-carboxylic acid γ-lactone]	78.5 nM	1.65	1.50	3 nM	27.8%
C[C@]12CC[C@H]3[C@@H](CC4(CC4)C4=CC(=O)CC[C@@H]43)[C@@H]1[C@@H]1C[C@@H]1[C@@]21C=CC(=O)O1 [Example 22, 6,6-(1,2-Ethanediyl)-17β-hydroxy-15β,16β-methylene-19-nor-17α-pregna-4,20(Z)dien-3-one-21-carboxylic acid γ-lactone]	30 nM	1.04	1.30	49 nM	91.2%
C=C[C@@H]1CC2=CC(=O)CC[C@@H]2[C@H]2CC[C@@]3(C)[C@@H]([C@H]4C[C@H]4[C@@]34C=CC(=O)O4)[C@@H]21 [Example 16A, 17β-Hydroxy-7α-vinyl-15α,16α-methylene-19-nor-17α-pregna-4;20(Z)-dien-3-one-21-carboxylic acid γ-lactone]	85 nM	3.76	1.88	95 nM	103%
